Data reported in ChEMBL document CHEMBL4480391, “Discovery and synthesis of sulfur-containing 6-substituted 5,8-dimethoxy-1,4-naphthoquinone oxime derivatives as new and potential anti-MDR cancer agents” (Eur J Med Chem, 2019).

Assays:
MCF7 = assay: Cytotoxicity against human MCF7 cells after 72 hrs by MTT assay; type: functional, cell-based; settings: MCF7, 72 h
Bel7402/5-FU = assay: Cytotoxicity against human Bel7402/5-FU cells after 72 hrs by MTT assay; type: functional, cell-based
[1] = Selectivity ratio of IC50 for human A549 cells to IC50 for human A549/TAX cells; type: functional
[2] = Selectivity index, ratio of IC50 for human HSF cells to IC50 for human HCT15 cells; type: toxicity; settings: HSF cells versus HCT15 cells, read-out: Ratio IC50
HCT-15 = assay: Cytotoxicity against human HCT15 cells after 72 hrs by MTT assay; type: functional, cell-based; settings: HCT-15, 72 h
[3] = Selectivity ratio of IC50 for human […] cells to IC50 for human Bel7402/5-FU cells; type: functional
[4] = Cytotoxicity against human HSF cells after 72 hrs by MTT assay; type: cell-based
A549 = assay: Cytotoxicity against human A549 cells after 72 hrs by MTT assay; type: functional, cell-based; settings: A549, 72 h
[5] = Selectivity ratio of IC50 for human MCF7 cells to IC50 for human MCF7/ADR cells; type: functional
K562 = assay: Cytotoxicity against human K562 cells after 72 hrs by MTT assay; type: functional, cell-based; settings: K562, 72 h
[6] = Cytotoxicity against human […] cells after 72 hrs by MTT assay; type: functional, cell-based
A549/TR = assay: Cytotoxicity against human A549/TAX cells after 72 hrs by MTT assay; type: functional, cell-based
NCI/ADR-RES = assay: Cytotoxicity against human MCF7/ADR cells after 72 hrs by MTT assay; type: functional, cell-based
MGC-803 = assay: Cytotoxicity against human MGC803 cells after 72 hrs by MTT assay; type: functional, cell-based; settings: MGC-803, 72 h

Compound | IC50 (MCF7) | IC50 (Bel7402/5-FU) | Ratio IC50 [1] | selectivity ratio [2] | IC50 (HCT-15) | Ratio IC50 [3] | IC50 [4] | IC50 (A549) | Ratio IC50 [5] | IC50 (K562) | IC50 [6] | IC50 (A549/TR) | IC50 (NCI/ADR-RES) | IC50 (MGC-803)
CCCCCCCCC(SC(=O)c1ccc(OC)c(OC)c1)c1cc(OC)c2c(c1OC)/C(=N/O)C=C/C2=N\O (stereo not drawn) | 13.1 µM | 0.57 µM | 10.9 | > 109 | 0.46 µM | 1.3 | > 50 µM | 10.5 µM | 4.97 | 0.75 µM | 0.74 µM | 0.96 µM | 2.63 µM | 0.95 µM
CCCCCCC(SC(=O)c1cc(OC)c(OC)c(OC)c1)c1cc(OC)c2c(c1OC)/C(=N/O)C=C/C2=N\O (stereo not drawn) |  |  |  | > 22.6 | 2.21 µM |  | > 50 µM |  |  | 1.52 µM |  |  |  | 4.92 µM
CCCCCCCCCCCCCCC(c1cc(OC)c2c(c1OC)/C(=N/O)C=C/C2=N\O)S(=O)(=O)CCC(C)C (stereo not drawn) |  |  |  | > 7.44 | 2.74 µM |  | > 50 µM |  |  | 1.56 µM |  |  |  | 3.53 µM
CCCCCCC(SCCC(C)C)c1cc(OC)c2c(c1OC)/C(=N/O)C=C/C2=N\O (stereo not drawn) |  |  |  | > 48.1 | 1.04 µM |  | > 50 µM |  |  | 1.28 µM |  |  |  | 1.9 µM
CCC(SCCC(C)C)c1cc(OC)c2c(c1OC)/C(=N/O)C=C/C2=N\O (stereo not drawn) |  |  |  | > 22.4 | 5.23 µM |  | > 50 µM |  |  | 3.28 µM |  |  |  | 10.4 µM
CCCCCCCCCC(SC(=O)c1cc(OC)c(OC)c(OC)c1)c1cc(OC)c2c(c1OC)/C(=N/O)C=C/C2=N\O (stereo not drawn) | 19.3 µM | 1.12 µM | 15.9 | > 61 | 0.82 µM | 1.2 | > 50 µM | 16.1 µM | 3.51 | 0.79 µM | 1.34 µM | 1.01 µM | 5.48 µM | 1.25 µM
CC(=O)O[C@H]1C(=O)[C@@]2(C)[C@H]([C@H](OC(=O)c3ccccc3)[C@]3(O)C[C@H](OC(=O)[C@H](O)[C@@H](NC(=O)c4ccccc4)c4ccccc4)C(C)=C1C3(C)C)[C@]1(OC(C)=O)CO[C@@H]1C[C@@H]2O [PACLITAXEL] | 0.47 µM | 10.5 µM | 0.02 |  |  | 0.06 |  | 0.54 µM | 0.03 |  | 0.65 µM | 24.5 µM | 17.7 µM | 
CCCCCCCCCCC(SCCCCC)c1cc(OC)c2c(c1OC)/C(=N/O)C=C/C2=N\O (stereo not drawn) |  |  |  | > 7.89 | 6.34 µM |  | > 50 µM |  |  | 7.21 µM |  |  |  | 12.1 µM
CCCCCCCCCCC(SCC)c1cc(OC)c2c(c1OC)/C(=N/O)C=C/C2=N\O (stereo not drawn) |  |  |  | > 56.2 | 0.89 µM |  | > 50 µM |  |  | 1.05 µM |  |  |  | 1.87 µM
CCCCCCCCCCCCC(SCCC(C)C)c1cc(OC)c2c(c1OC)/C(=N/O)C=C/C2=N\O (stereo not drawn) |  |  |  | > 3.86 | 13 µM |  | > 50 µM |  |  | 10.1 µM |  |  |  | 17.4 µM
CCCCCCCC(SC(=O)c1cc(OC)c(OC)c(OC)c1)c1cc(OC)c2c(c1OC)/C(=N/O)C=C/C2=N\O (stereo not drawn) | 20.7 µM | 1.56 µM | 7.96 | > 51 | 0.98 µM | 1.9 | > 50 µM | 17.9 µM | 2.7 | 0.85 µM | 2.96 µM | 2.25 µM | 7.88 µM | 1.21 µM
CCCCCCC(c1cc(OC)c2c(c1OC)/C(=N/O)C=C/C2=N\O)S(=O)(=O)CCC(C)C (stereo not drawn) |  |  |  | > 6.82 | 7.33 µM |  | > 50 µM |  |  | 4.25 µM |  |  |  | 15.7 µM
CCCCCCCCC(SC(=O)c1ccc(C(F)(F)F)cc1)c1cc(OC)c2c(c1OC)/C(=N/O)C=C/C2=N\O (stereo not drawn) |  |  |  | > 13.1 | 3.82 µM |  | > 50 µM |  |  | 4.45 µM |  |  |  | 6.34 µM
CCC(SC(=O)c1cc(OC)c(OC)c(OC)c1)c1cc(OC)c2c(c1OC)/C(=N/O)C=C/C2=N\O (stereo not drawn) |  |  |  | > 18.2 | 12.5 µM |  | > 50 µM |  |  | 14.4 µM |  |  |  | 30.3 µM
CCCCCCCC(SCCC(C)C)c1cc(OC)c2c(c1OC)/C(=N/O)C=C/C2=N\O (stereo not drawn) | 38.6 µM | 2.92 µM | 5.38 | > 61 | 0.82 µM | 1.53 | > 50 µM | 24.3 µM | 2.09 | 1 µM | 4.47 µM | 4.52 µM | 18.5 µM | 1.35 µM
CCCCC(SC(=O)c1cc(OC)c(OC)c(OC)c1)c1cc(OC)c2c(c1OC)/C(=N/O)C=C/C2=N\O (stereo not drawn) |  |  |  | > 6.47 | 7.73 µM |  | > 50 µM |  |  | 6.35 µM |  |  |  | 14.7 µM
O=c1[nH]cc(F)c(=O)[nH]1 [FLUOROURACIL] | 26.6 µM | 936 µM | 0.26 | > 6.64 |  | 0.02 | > 50 µM | 28.6 µM | 0.05 | 12.2 µM | 22.9 µM | 112 µM | 513 µM | > 50 µM

Compound | IC50 (MCF7) | IC50 (Bel7402/5-FU) | Ratio IC50 [1] | selectivity ratio [2] | IC50 (HCT-15) | Ratio IC50 [3] | IC50 [4] | IC50 (A549) | Ratio IC50 [5] | IC50 (K562) | IC50 [6] | IC50 (A549/TR) | IC50 (NCI/ADR-RES) | IC50 (MGC-803)
CCCCC(SCCC(C)C)c1cc(OC)c2c(c1OC)/C(=N/O)C=C/C2=N\O (stereo not drawn) |  |  |  | > 17.1 | 2.92 µM |  | > 50 µM |  |  | 2.03 µM |  |  |  | 5.96 µM
CCCCCCCCC(SCCC(C)C)c1cc(OC)c2c(c1OC)/C(=N/O)C=C/C2=N\O (stereo not drawn) | 33.6 µM | 0.73 µM | 16 | > 92.6 | 0.54 µM | 3.16 | > 50 µM | 18.9 µM | 2.41 | 0.76 µM | 2.31 µM | 1.18 µM | 14 µM | 1.09 µM
CCCCCCCCCCSC(CCCCCCCCCC)c1cc(OC)c2c(c1OC)/C(=N/O)C=C/C2=N\O (stereo not drawn) |  |  |  | > 1.42 | 35.2 µM |  | > 50 µM |  |  | 40.3 µM |  |  |  | > 50 µM
CCCCCCCCC(SCCCCCC)c1cc(OC)c2c(c1OC)/C(=N/O)C=C/C2=N\O (stereo not drawn) |  |  |  | > 46.3 | 1.08 µM |  | > 50 µM |  |  | 1.14 µM |  |  |  | 1.91 µM
CCCCCCCCC(c1cc(OC)c2c(c1OC)/C(=N/O)C=C/C2=N\O)S(=O)(=O)CCC(C)C (stereo not drawn) |  |  |  | > 12.6 | 3.89 µM |  | > 50 µM |  |  | 1.29 µM |  |  |  | 7.82 µM
CCCCCCCCCC(SCCC(C)C)c1cc(OC)c2c(c1OC)/C(=N/O)C=C/C2=N\O (stereo not drawn) |  |  |  | > 54.3 | 0.92 µM |  | > 50 µM |  |  | 0.98 µM |  |  |  | 1.54 µM
CCCCCCCCCCCCCCC(SC(=O)c1cc(OC)c(OC)c(OC)c1)c1cc(OC)c2c(c1OC)/C(=N/O)C=C/C2=N\O (stereo not drawn) |  |  |  | > 6.27 | 7.98 µM |  | > 50 µM |  |  | 5.83 µM |  |  |  | 9.68 µM
CCCCCCCCC(SC(=O)c1cccs1)c1cc(OC)c2c(c1OC)/C(=N/O)C=C/C2=N\O (stereo not drawn) |  |  |  | > 41 | 1.22 µM |  | > 50 µM |  |  | 0.95 µM |  |  |  | 3.71 µM
CCCCCCCCC(SC(=O)c1ccco1)c1cc(OC)c2c(c1OC)/C(=N/O)C=C/C2=N\O (stereo not drawn) |  |  |  | > 20.7 | 2.42 µM |  | > 50 µM |  |  | 1.38 µM |  |  |  | 5.26 µM
CCCCCCCCC(SCC)c1cc(OC)c2c(c1OC)/C(=N/O)C=C/C2=N\O (stereo not drawn) |  |  |  | > 21.6 | 2.32 µM |  | > 50 µM |  |  | 2.71 µM |  |  |  | 4.39 µM
CCCCCCCCCCC(SCCCCCC)c1cc(OC)c2c(c1OC)/C(=N/O)C=C/C2=N\O (stereo not drawn) |  |  |  | > 4.86 | 10.3 µM |  | > 50 µM |  |  | 10.8 µM |  |  |  | 18.5 µM
CCCCCCCCCCC(SCCC(C)C)c1cc(OC)c2c(c1OC)/C(=N/O)C=C/C2=N\O (stereo not drawn) |  |  |  | > 10.5 | 4.75 µM |  | > 50 µM |  |  | 5.49 µM |  |  |  | 8.91 µM
CCCCCCCCCCC(SC(=O)c1cc(OC)c(OC)c(OC)c1)c1cc(OC)c2c(c1OC)/C(=N/O)C=C/C2=N\O (stereo not drawn) |  |  |  | > 36 | 1.39 µM |  | > 50 µM |  |  | 1.96 µM |  |  |  | 4.66 µM
COc1cccc2c1C(=O)c1c(O)c3c(c(O)c1C2=O)C[C@@](O)(C(=O)CO)C[C@@H]3O[C@H]1C[C@H](N)[C@H](O)[C@H](C)O1.Cl [DOXORUBICIN HYDROCHLORIDE] | 0.42 µM | 11 µM | 0.04 |  |  | 0.12 |  |  | 0.01 |  | 1.32 µM | 42.6 µM | 39.5 µM | 
CCCCCCCCCCCCCCC(SCCC(C)C)c1cc(OC)c2c(c1OC)/C(=N/O)C=C/C2=N\O (stereo not drawn) |  |  |  | > 2.22 | 22.5 µM |  | > 50 µM |  |  | 25.7 µM |  |  |  | 38.2 µM
CC(C)=CC[C@@H](O)C1=CC(=O)c2c(O)ccc(O)c2C1=O [SHIKONIN] |  |  |  | 1.45 |  |  | 1.25 µM |  |  | 1.02 µM |  |  |  | 
CCCCCCCCCCCCC(SC(=O)c1cc(OC)c(OC)c(OC)c1)c1cc(OC)c2c(c1OC)/C(=N/O)C=C/C2=N\O (stereo not drawn) |  |  |  | > 7.85 | 5.42 µM |  | > 50 µM |  |  | 4.41 µM |  |  |  | 7.59 µM
